{"source": "paper PMC9344054", "about": "“Studies on Chemical Characterization of Ginkgo Amillaria Oral Solution and Its Drug–Drug Interaction With Piceatannol 3′-O-β-D-Glucopyranoside for Injection” (Frontiers in Pharmacology, 2022)", "origin": "cited, not measured here", "key": {"[1]": {"test_system": "most human UGTs, including UGT1A1, 1A3, 1A4, 1A6, 1A7, 1A8, and 1A9", "set-up": "method as in Lv et al., 2018", "conditions": "UGT1A1, 1A3, 1A4, 1A6, 1A7, 1A8, 1A9; ref Lv et al., 2018; cited from earlier work"}, "human hepatic UGT1A4": {"test_system": "human hepatic UGT1A4", "set-up": "method as in Cao et al., 2017", "conditions": "in vitro; ref Cao et al., 2017; cited from earlier work"}, "human hepatic UGT1A1": {"test_system": "human hepatic UGT1A1", "set-up": "method as in Cao et al., 2017", "conditions": "in vitro; ref Cao et al., 2017; cited from earlier work"}, "[2]": {"test_system": "breast cancer resistance protein", "set-up": "method as in An et al., 2011; Palatini and De Martin, 2016", "conditions": "ref An et al., 2011; Palatini and De Martin, 2016; cited from earlier work"}, "P-glycoprotein": {"test_system": "P-glycoprotein", "set-up": "method as in An et al., 2011; Palatini and De Martin, 2016", "conditions": "previous studies; ref An et al., 2011; Palatini and De Martin, 2016; cited from earlier work"}, "[3]": {"set-up": "method as in Zhao et al., 2006", "conditions": "pretreatment of GBE 100 mg kg−1 for 10 days; ref Zhao et al., 2006; cited from earlier work"}, "[4]": {"set-up": "method as in Fan et al., 2009", "conditions": "ten healthy male volunteers, ref Fan et al., 2009, cited from earlier work"}, "UGT1A6": {"test_system": "UGT1A6", "set-up": "method as in Zhang et al., 2021", "conditions": "ref Zhang et al., 2021; cited from earlier work"}, "UGT1A1": {"test_system": "UGT1A1", "set-up": "method as in Zhang et al., 2021", "conditions": "ref Zhang et al., 2021; cited from earlier work"}, "UGT1A9": {"test_system": "UGT1A9", "set-up": "method as in Zhang et al., 2021", "conditions": "ref Zhang et al., 2021; cited from earlier work"}, "UGT1A3": {"test_system": "UGT1A3", "set-up": "method as in Zhang et al., 2021", "conditions": "ref Zhang et al., 2021; cited from earlier work"}}}
{"smiles": "O=c1cc(-c2ccc(O)c(-c3c(O)cc(O)c4c(=O)cc(-c5ccc(O)cc5)oc34)c2)oc2cc(O)cc(O)c12", "note": "[amentoflavone]", "values": [{"measurement": "inhibition toward most human UGTs", "setting": "[1]", "result": "strong inhibition"}]}
{"smiles": "O=c1cc(-c2ccc(O)c(O)c2)oc2cc(O)cc(O)c12", "note": "[luteolin]", "values": [{"measurement": "inhibition of human hepatic UGT1A4", "setting": "human hepatic UGT1A4", "result": "inhibited"}, {"measurement": "inhibition of human hepatic UGT1A1", "setting": "human hepatic UGT1A1", "result": "inhibited"}]}
{"smiles": "O=c1c(O)c(-c2ccc(O)cc2)oc2cc(O)cc(O)c12", "note": "[kaempferol]", "values": [{"measurement": "inhibition of breast cancer resistance protein", "setting": "[2]", "result": "inhibitor"}, {"measurement": "inhibition of the P-glycoprotein-mediated efflux of ritonavir", "setting": "P-glycoprotein", "result": "remarkable inhibition"}]}
{"smiles": "CC(C)NCC(O)COc1cccc2ccccc12", "note": "(stereo not shown) [propranolol]", "values": [{"measurement": "change of AUC of propranolol", "setting": "[3]", "result": "significantly reduce"}, {"measurement": "change of C max of propranolol", "setting": "[3]", "result": "significantly reduce"}]}
{"smiles": "CC(C)(C)NCC(O)COc1ccc(NC(=O)NC2CCCCC2)cc1", "note": "(stereo not shown) [talinolol]", "values": [{"measurement": "increase of AUC0-24 of talinolol", "setting": "[4]; repeated ingestion of GBE", "result": 26, "unit": "%"}, {"measurement": "increase of C max of talinolol", "setting": "[4]; repeated ingestion of GBE", "result": 36, "unit": "%"}, {"measurement": "effect on pharmacokinetics of talinolol", "setting": "[4]; single dose of GBE orally", "result": "did not affect"}]}
{"smiles": "O=c1c(O)c(-c2ccc(O)c(O)c2)oc2cc(O)cc(O)c12", "note": "[quercetin]", "values": [{"measurement": "inhibition of UGT1A6", "setting": "UGT1A6", "result": "weak inhibitor"}, {"measurement": "inhibition of human hepatic UGT1A4", "setting": "human hepatic UGT1A4", "result": "inhibited"}, {"measurement": "inhibition of UGT1A1", "setting": "UGT1A1", "result": "moderate inhibitor"}, {"measurement": "inhibition of UGT1A9", "setting": "UGT1A9", "result": "strong inhibitor"}, {"measurement": "inhibition of UGT1A3", "setting": "UGT1A3", "result": "moderate inhibitor"}, {"measurement": "inhibition of human hepatic UGT1A1", "setting": "human hepatic UGT1A1", "result": "inhibited"}]}
